Values quoted from earlier work as cited in patent US20240390363A1, “GRANULES CONTAINING POSACONAZOLE” (ALFRED E. TIEFENBACHER (GMBH & CO. KG), priority 2021, published 2024).

Experiments:
[1] = forms compared with form I
[2] = storage or stress conditions; form IV: aqueous suspension

Aqueous / water solubility [1]	SMILES	Stability of the crystalline form [2]
low aqueous solubility	CC[C@@H]([C@H](C)O)n1ncn(-c2ccc(N3CCN(c4ccc(OC[C@@H]5CO[C@@](Cn6cncn6)(c6ccc(F)cc6F)C5)cc4)CC3)cc2)c1=O [Posaconazole]	
better water solubility	CC[C@@H]([C@H](C)O)n1ncn(-c2ccc(N3CCN(c4ccc(OC[C@@H]5CO[C@@](Cn6cncn6)(c6ccc(F)cc6F)C5)cc4)CC3)cc2)c1=O [form IV, posaconazole]	better stability in an aqueous suspension
better water solubility	CC[C@@H]([C@H](C)O)n1ncn(-c2ccc(N3CCN(c4ccc(OC[C@@H]5CO[C@@](Cn6cncn6)(c6ccc(F)cc6F)C5)cc4)CC3)cc2)c1=O [form Y, posaconazole]	as stable as form I
